# Assay results from ChEMBL document CHEMBL1140746, “Cdc7 kinase inhibitors: pyrrolopyridinones as potential antitumor agents. 1. Synthesis and structure-activity relationships” (J Med Chem, 2008).
# What was measured:
# [1] = molecular target: Cell division cycle 7-related protein kinase (Homo sapiens, UniProt O00311)
# A2780 = test: Antiproliferative activity against human A2780 cells after 72 hrs; type: functional, cell-based; conditions: A2780, 72 h
# Cell division cycle 7-related protein kinase, sequence (O00311 whole entry): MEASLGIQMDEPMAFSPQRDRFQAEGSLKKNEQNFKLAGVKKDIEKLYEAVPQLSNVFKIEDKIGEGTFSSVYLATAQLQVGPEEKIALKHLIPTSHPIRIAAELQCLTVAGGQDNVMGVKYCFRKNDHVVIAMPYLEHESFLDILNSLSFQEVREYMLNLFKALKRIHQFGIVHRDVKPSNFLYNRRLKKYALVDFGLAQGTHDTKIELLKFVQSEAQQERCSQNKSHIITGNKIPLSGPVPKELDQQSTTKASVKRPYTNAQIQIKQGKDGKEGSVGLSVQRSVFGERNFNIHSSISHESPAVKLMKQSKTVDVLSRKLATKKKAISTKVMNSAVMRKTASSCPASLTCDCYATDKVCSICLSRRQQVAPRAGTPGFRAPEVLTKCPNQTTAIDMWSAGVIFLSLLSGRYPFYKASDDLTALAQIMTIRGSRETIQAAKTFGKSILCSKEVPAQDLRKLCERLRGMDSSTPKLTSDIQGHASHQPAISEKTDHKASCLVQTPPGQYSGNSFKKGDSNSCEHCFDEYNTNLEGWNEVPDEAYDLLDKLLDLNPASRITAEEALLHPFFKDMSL
SMILES,IC50 [1] [nM],IC50 (A2780) [nM]
O=C1NCCc2[nH]c(-c3ccnc(NCC4CCCCC4)n3)cc21,655,
Cn1c(-c2ccnc(N)n2)cc2c1CCNC2=O,88,
O=CN1CCc2[nH]c(-c3ccncc3)cc2C1=O,863,
O=C(Nc1nccc(-c2cc3c([nH]2)CCNC3=O)n1)c1ccccc1,262,
Nc1nccc(-c2cc3c(n2CCCC(F)(F)F)CCNC3=O)n1,47,
O=C1NCCc2c1cc(-c1ccncc1)n2CCO,3300,
CC(C)C(=O)Nc1nccc(-c2cc3c([nH]2)CCNC3=O)n1,1400,
O=C1NCCc2[nH]c(-c3cccnc3)cc21,> 5000,
O=C1NCCc2oc(-c3ccncc3)cc21,201,
Nc1nccc(-c2cc3c(n2Cc2ccccc2)CCNC3=O)n1,290,
Nc1nccc(-c2c[nH]c3c2C(=O)NCC3)n1,> 5000,
O=C1NCCc2[nH]c(-c3ccccc3)cc21,> 5000,
O=C1NCCc2[nH]c(-c3ccnc(NCc4ccccc4)n3)cc21,220,
CN1CCC(n2c(-c3ccnc(N)n3)cc3c2CCNC3=O)CC1,120,
CCn1c(-c2ccncc2)cc2c1CCNC2=O,67,
O=C1NCCc2[nH]ccc21,> 5000,
CC(C)CNc1nccc(-c2cc3c([nH]2)CCNC3=O)n1,636,
O=C1NCCc2c1cc(-c1ccncc1)n2CC(F)(F)F,160,
O=C1NCCCc2[nH]c(-c3ccncc3)cc21,158,
CC(=O)Nc1nccc(-c2cc3c([nH]2)CCNC3=O)n1,323,
Nc1nccc(-c2cc3c(n2-c2ccccc2)CCNC3=O)n1,> 5000,
Nc1nccc(-c2cc3c(n2C2CCCCC2)CCNC3=O)n1,> 5000,
CCCNc1nccc(-c2cc3c([nH]2)CCNC3=O)n1,259,
Cn1c(-c2ccncc2)cc2c1CCNC2=O,404,
O=C1NCCn2nc(-c3ccncc3)cc21,210,
Nc1nccc(-c2cc3c(n2CCO)CCNC3=O)n1,138,
O=C1NCCc2[nH]c(-c3ncnc4[nH]cnc34)cc21,178,

# These reach a lower IC50 [1]. Values come first.
IC50 [1] [nM],IC50 (A2780) [nM],SMILES
14,,Nc1nccc(-c2cc3c(n2C2CCC2)CCNC3=O)n1
2,100,O=C1NCCc2[nH]c3c(ccc4cnccc43)c21
13,,CC(C)Cn1c(-c2ccnc(N)n2)cc2c1CCNC2=O
28,> 10000,Nc1cc(-c2cc3c([nH]2)CCNC3=O)ccn1
8,,CCn1c(-c2ccnc(N)n2)cc2c1CCNC2=O
27,4700,O=C1NCc2[nH]c(-c3ccncc3)cc21
14,> 10000,O=C1NCCc2[nH]c(-c3ccnc4[nH]ccc34)cc21
7,,Nc1nccc(-c2cc3c([nH]2)CCNC3=O)n1
23,,CCCCn1c(-c2ccnc(N)n2)cc2c1CCNC2=O
45,,Cc1c(-c2ccncc2)[nH]c2c1C(=O)NCC2
12,,CCCn1c(-c2ccnc(N)n2)cc2c1CCNC2=O
9,200,O=C1NCCc2[nH]c(-c3ccncc3F)cc21
5,,Nc1nccc(-c2cc3c(n2CC(F)(F)F)CCNC3=O)n1
4,,Nc1nccc(-c2cc3c(n2CC2CC2)CCNC3=O)n1
20,5500,O=C1NCCc2[nH]c(-c3ccncn3)cc21
3,,Nc1nccc(-c2cc3c(n2CCF)CCNC3=O)n1
42,,CC(C)n1c(-c2ccnc(N)n2)cc2c1CCNC2=O
4,800,Nc1ncc(Br)c(-c2cc3c([nH]2)CCNC3=O)n1
